{"source": "patent US8962263B2", "about": "“Methods and compositions for detecting the activation state of multiple proteins in single cells” (The Board of Trustees of the Leland Stanford Junior …, priority 2001, dated 2015)", "key": {"ezrin": {"system": "ezrin", "experiment": "phosphotyrosine-protein based elisa for ezrin tyrosine phosphorylation upon ICAM-2 ligation", "type": "cell-based, human", "conditions": "Jurkat cells", "description": "A) Expression levels of ICAM-2, vary across cell lines of different origins. Quantitative flow cytometry analysis was performed to assess the number of ICAM-2 surface molecules across transformed and untransformed fibroblasts, lymphocytes of T-cell and different B-cell differentiation states and myeloid lineages (see Material and Methods for elaboration). The number of surface molecules/cell is expressed as the mean (bar)+/−SD of triplicate experiments. B) Crosslinking of endogenous ICAM-2, induces ezrin tyrosine phosphorylation and enhanced ICAM-2, interaction. Jurkat cells were crosslinked for ICAM-2 using monoclonal antibody for the indicated times and subjected to immunoprecipitation/immunoblotting as indicated. C) Inhibition of ezrin phosphotyrosine by chemical inhibitors of src and Rho-dependent kinases. D) Ezrin phosphorylation and enhanced interaction with the p85, subunit of PI3K as a function of ICAM-2. Determined as described above. E) PDK-1, activity as a function of ICAM-2, ligation, as described above). F) PI3K and AKT localize to the membrane as a function of ICAM-2, ligation. Membrane/cytosolic fractionation was performed on ICAM-2, ligated Jurkat cells as a function of time and subjected to immunoblotting for PI3K and AKT.\nIn order to identify upstream kineses capable of tyrosine phosphorylating ezrin as a function of ICAM-2 ligation, we developed a phosphotyrosine-protein based elisa to screen for the inhibition of ezrin tyrosine phosphorylation in vivo by various known inhibitors of protein kineses (Perez and Nolan, manuscript in preparation). […] Given the design of the screen to detect tyrosine residue phosphorylation, we speculate that activation of Rho-dependent processes may be a prerequisite for ezrin to be tyrosine phosphorylated by src (elaborated below)."}, "CD19+ human B cells": {"system": "CD19+ human B cells", "conditions": "10 μM, 30 minutes", "procedure": "Apoptosis was measured by annexin-V binding detected by flow cytometry, and gated for CD19+, cells. […] Apoptosis was measured by annexin-V binding assay.\nAntibody cross-linking experiments were performed using mAbs to anti-ICAM-1, anti-ICAM-2, anti-ICAM-3, anti-CD43, or anti-CD44 that recognizes the N-terminal region (extracellular domain) at 10 μg/ml. Spin dialysis (Biorad) was used for buffer exchange of azide containing antibodies (0.01%) to phosphate buffered saline buffer pH 7.4. Anti-mouse IgG (Sigma) was used as a control antibody in cross-linking experiments. 1×10^6 Jurkat, 1×10^6 BaF3, or 1×10^7 PBMC cells were serum starved for 4 hours respectively (except PBMC). Cells were incubated with either mAb (10 μg/ml) or mouse IgG (10 μg/ml) at 37° C. for the indicated time. Time points began post serum starvation to attenuate most of the signaling pathways or as indicated. […] Cells extracts were taken and subjected to either immunoprecipitation or immunoblotting were appropriate. Primary cells were subjected to apoptotic treatment followed by preparation for flow cytometry. GTPγS was made cell permeant by pre-incubating compound with Fugene (Roche Biochemicals) in a 1:4 molar ratio for 30 minutes at 25° C. prior to being applied to cells."}, "Jurkat T cells": {"system": "Jurkat T cells", "experiment": "anti-Fas induced apoptosis in ICAM-2 crosslinked Jurkat cells, annexin-V binding assay", "type": "cell-based, human", "conditions": "inhibitor 10 μM 1 hour, anti-Fas 50 ng/ml 8 hours", "description": "A) ICAM-2, crosslinking induced AKT activity in Jurkat T cells and subsequent phosphorylation of GSK3, FKHR, and AFX as a function of time. Serum starved Jurkat T cells were incubated with either isotype control or anti-human ICAM-2, (10, μg/ml) for the indicated times. AKT kinase activity was determined as described. Immunoblot analysis verified AKT dual phosphorylation, FKHR and GSK3 phosphorylation, and BAD phosphorylation as a function of ICAM-2, crosslinking. B) ICAM-2 crosslinking induces AKT activity in BaF3, pre-B cells. […] ICAM-2, was crosslinked on 106, Jurkat T cells using an ICAM-2, mAb (10, μg/ml) 30, minutes prior to treatment with staurosporine (+) or DMSO vehicle (−). Apoptosis was determined by flow cytometry using annexin-V binding assay. […] Cells were assessed for apoptosis by annexin-V binding assay. […]\nApoptosis was determined either by counting pyknotic nuclei, annexin-V binding by flow cytometry, or TUNEL BrdU staining by flow cytometry as indicated. Apoptosis was induced either by staurosporine (1 μm), treatment with anti-mouse Fas (5 μq/ml Santa Cruz Biotechnology (SCB), anti-human Fas ([…]) as indicated in appropriate experiment, IL-3 withdrawal-(24 hrs) or as indicated. For pyknolic nuclei count, NIH3T3 cells were grown on glass coverslips and assayed for apoptosis. Suspension cells were analyzed by nuclear staining with 25 μM acridine orange/25 μm ethidium bromide or 5 μg/ml Hoechst 33342 (Molecular Probes, Eugene, Oreg.). Apoptosis was identified by the presence of characteristic pyknotic nuclei as described (Jacobson and Raff, 1995). At least 5 individual fields were photographed and counted using a Zeiss axioscope fluorescence microscope. […] The cells were trypsinized and viable cells counted following trypan blue staining. Untreated cells were counted at the time of treatment. % survival represents (number of viable cells post-treatment)/(number of viable cells pretreatment). […] Flow cytometry analysis was performed on a BD FACSCalibur machine with CELLQuest and analyzed using FlowJo software (Tree Star)."}, "PDK-1": {"system": "PDK-1", "experiment": "PDK-1 immunoprecipitation kinase assay from ICAM-2 cells", "type": "biochemical", "conditions": "compounds 10 μM, 1 hr", "description": "A) ICAM-2, interacts with α-actinin and ezrin. ICAM-2, ICAM2-ΔC or control cells were immunoprecipiated for ICAM-2, and immunoblotted for either a-actinin or ezrin. Control lysates were not subjected to immunoprecipitation and reflect positive controls for detected interacting protein. […] ICAM-2, and control cells were serum starved (48, hrs), treated with LY294002, (10, μM, 24, hrs), or cultured in growth media, and prepared for intracellular detection of phosphatidyinositol 3,4,5, triphosphate detection by flow cytometry. […] Phosphotransfer of ATP to peptide substrate was detected by scintillation counting and presented as counts per minute CPM. […]\nPDK-1 activity was determined by a PDK-1 immunoprecipiation kinase assay kit (Upstate Biotecnology, Lake Placid, N.Y.) as recommended by manufacturer. In brief, PDK-1 was immunoprecipitated from 1×10^6 treated cells, incubated with inactivated SGK enzyme, and detection of (γ-^32P) ATP incorporation to a SGK peptide substrate was measured by scintillation counting. PI3K activity was detected by developed PI3K FACS based assay (see below). AKT activity was detected by immunoprecipitation of AKT1 from cells and used in a kinase assay with GSK3 fusion protein (CST). […] Kinase reaction was terminated with SDS sample buffer boiled for 5 min, and phosphorylation state of GS3K was detected by immunoblotting and visualized using ECL detection (Amersham). […]"}}, "data": [{"smiles": "C[C@@H](N)[C@H]1CC[C@H](C(=O)Nc2ccncc2)CC1", "note": "[Y-27632]", "values": [{"measurement": "tyrosine phosphorylation of ezrin", "setting": "ezrin", "result": "inhibit the tyrosine phosphorylation of ezrin"}, {"measurement": "tyrosine phosphorylation of ezrin", "setting": "ezrin; listed as Y-27362", "result": "abolished tyrosine phosphorylation of ezrin"}, {"measurement": "ICAM-2 anti-apoptotic effect in CD19+ human B cells", "setting": "CD19+ human B cells", "result": "abrogated"}, {"measurement": "ICAM-2 crosslinking protection against Fas induced apoptosis", "setting": "Jurkat T cells", "result": "abrogated"}, {"measurement": "PDK-1 activity in ICAM-2 cells", "setting": "PDK-1", "result": "partially inhibited"}]}]}
